Consider 1 molecule from patent publication US9816227B2, “Textile products with herbal composition to render the fabrics insects repellent” (priority 2013, dated 2017).

Molecules are shown by their SMILES. A value given as a limit tells only on which side of the number the result lay.

The subject of data set [1] is insects (larvae, pupae, adults). As to the kind of experiment: Exposure of insect larvae: inhibition of development to pupae and adults. The class given is in vivo. The text has this: The possible effect of azadirachtin and other bioflavonoids including azadiradione, fraxinellone, nimbin, salannin, salannol, vepinin and vilasinin, the active components of the Neem seed oil extract, are inhibiting molting in larvae to pupae and adults of the most of the insects. Apart from delayed lethal action, effects on the pupation, adult emergence, and size of pupae or adults have been also observed. […] The compounds are characterized by their inhibition or prevention of formation of adult morphology. The effects on pupae (based on proportion of undeveloped individuals) and adults (based on incomplete development, attachment to puparia, or inability to fly) are dose-dependent.
No adults of insects are obtained at doses of 1.10, 10 and 100 μg/ml. These concentrations cause about 100% mortality of larvae or developed pupae. […] The treatments with 0.00001 and 0.001 μg/ml would result in an insignificant increase (0.8-1.6%) in the female wing length/width.

The conditions of data set [2]: exposed to light and water; cited from earlier work.
The test system of data set [3] is desert locust (Schistocerca gregaria). The settings on record: in vivo; cited from earlier work.

On to `C/C=C(\C)C(=O)O[C@H]1C[C@@H](OC(C)=O)[C@@]2(C(=O)OC)CO[C@H]3[C@@H](O)[C@@](C)([C@]45O[C@@]4(C)[C@H]4C[C@@H]5O[C@@H]5OC=C[C@@]54O)[C@H]4[C@]1(CO[C@]4(O)C(=O)OC)[C@@H]32` [azadirachtin, dimethyl (2aR,3S,4S,R,S,7aS,8S,10R,10aS,10bR)-10-(acetyloxy)-3,5-dihydroxy-4-[(1S,2S,6S,8S,9R,11S)-2-hydroxy-11-methyl-5,7,10-trioxatetracyclo[6.3.1.02,6.09,11]dodec-3-en-9-yl]-4-methyl-8-{[(2E)-2-methylbut-2-enoyl]oxy}octahydro-1H-furo[3′,4′:4,4a]naphtho[1,8-bc]furan-5,10a(8H)-dicarboxylate], for which, in data set [1] (0.00001 and 0.001 μg/ml, insignificant), the “increase in the female wing length/width” value is 0.8-1.6%. For the same molecule, the “effect on wing dimensions of females” value in data set [1] (0.001, 0.01 and 0.1 μg/ml) is on record as “do not significantly affect”. Also, in data set [1] (treatment of larvae with 0.00001 to 0.1 μg/ml), the “pupal weights and dimensions, adult weights, wing dimensions, or interocular distances” value is “significant reductions”. In data set [2], the degradation time was at most 100 h. Further, in data set [3], the feeding inhibitor activity entry was “active”.
